Source: US9376380B2 (University of Pittsburgh—Of the Commonwealth System of …, priority 2011, dated 2016)
“Also recorded” adds a separate entry of the source. Like-named read-outs stand apart in the source and are kept apart here.

Experiments:
Human MM cell U266 = experiment: [3H]-thymidine uptake cell proliferation assay, U266; assay type: cell-based; conditions: for inhibition of DNA synthesis in MM cells: U266, 0-10 μmol/L, 48 h
Procedure: (§1) FIG. 2. Inhibitory effects of CB2 ligands on human MM cell growth. Human MM cell U266 (3×10^4 cells per well in 96-well plate) was exposed to the known CB2 ligands (A) or PAM (B) at indicated concentrations (0-10 μmol/L) for 48 h. Cell proliferation was measured by [^3H]-thymidine uptake assay as described in Materials and Methods. (C) U266 cells (3×10^4 per well in 96-well plate) were treated with PAM at indicated doses for 48 h. Cell viability and the viable cell number per well were determined using trypan blue exclusion assay. (D) Human chemoresistant myeloma cell lines MM.1R (dexamethasone), RPMI-8226/LR5 (melphalan) and their respective parent cells MM.1S and RPMI-8226 were exposed to PAM for 48 h. Cell proliferation was measured by ^3H-thymidine incorporation. The data presented are the mean±SD of at least 3 independent measurements. (E) [S^35]-GTPγS binding assay of different ligands on human CB2 receptor expressed in CHO cells.
(§2) A tritiated thymidine incorporation assay was carried out to investigate the effects of CB2 ligands on cell proliferation. U266, RPMI-8226 (3×10^4 cells/well), MM.1 S cells (6×10^4 cells/well), and their resistant sublines were cultured in 96-well culture plates with or without drugs for 48 hours. DNA synthesis was measured by ^3H-thymidine uptake as described previously.

[1] = target: T1, human CB2 receptor expressed in CHO cells (Homo sapiens, UniProt P34972); experiment: [35S]-GTPγS binding assay; assay type: biochemical
T1 construct: expressed in transfected cells; host or cells: CHO cells

U266 cells = experiment: Trypan blue viability of U266 cells with CB2 agonist; assay type: cell-based, human; conditions: Win55212-2 or CP55940, 48 h
Procedure: (§3) FIG. 3. Inhibitory activity of PAM (compound (1)) in CB2 knockdown or agonist treated cells. (A) CB2 gene silencing in MM1.S cells confirmed by Western blot with CB2antibody. (B) Human MM1.S cells expressing shRNA vector or expressing the specific shRNA against human CB2 were treated with vehicle control (white column), or the indicated concentrations of PAM (black column) for 48 h. Cell proliferation was measured by [^3H]TdR uptake. […] The cell viability and the viable cells/well were determined using trypan blue exclusion assay.

MM cells = experiment: Apoptosis and cell cycle protein studies in MM cells; assay type: cell-based
Source text: Since drug resistance is a prevalent problem in multiple myeloma clinical treatment, the ability of compounds according to this invention to overcome chemoresistance of MM cells against conventional drugs such as dexamethasone or melphalan provides an unexpected advantageous benefit in MM treatment. The present inventors have hypothesized that the cell inhibitory activity of the inventive compounds is due to their ability to activate apoptotic processes.
Compound (1) also altered certain proteins that are known to play a role in the cell-growth cycle. […] To further explore this observation, the present inventors investigated the effect of compound (1) on several proteins involved in cell G2-M phase transition.

[2] = tested on: MM.1S and RPMI-8226 cells; experiment: [3H]-thymidine incorporation, parent myeloma cell lines; assay type: cell-based, human; conditions: MM.1S and RPMI-8226, 48 h
Procedure: as §1, §2

[3] = tested on: MM.1R (dexamethasone) and RPMI-8226/LR5 (melphalan) cells; experiment: [3H]-thymidine incorporation, chemoresistant myeloma cell lines; assay type: cell-based; conditions: Homo sapiens; MM.1R and RPMI-8226/LR5, 48 h; read-out: growth inhibition of chemoresistant myeloma cell lines, IC50
Procedure: as §1, §2

CB2 receptor [4] = target: T2, CB2 receptor (Homo sapiens, UniProt P34972); experiment: Cell-based cAMP assay
Source text: Cell-based cAMP assays were used to identify the mode by which the CB2 ligands according to the present invention modulate CB2 receptor.

[5] = tested on: bone marrow mononuclear cells (MNC); experiment: RANKL-induced osteoclast formation in bone marrow mononuclear cells; assay type: cell-based, murine and human
Procedure: FIG. 4. Effects of XIE35 and compound (1) on RANKL-induced osteoclast formation in bone marrow mononuclear cells (MNC). […] Half-medium change was performed every other day using drug-containing media where appropriate. After 5 days, the cells were fixed and stained for TRAP activity using a TRAP-staining kit (Sigma-Aldrich) according to the manufacturer's instructions. Lower panel: Human bone marrow MNCs (1×10^5 per well) were treated with rhRANKL (50 ng/ml) plus rhM-CSF (10 ng/ml), and the respective compounds as described above. After three weeks, differentiation into OCLs was assessed by staining with monoclonal antibody 23c6 using a Vectastatin-ABC-AP kit (Vector Laboratories). The antibody 23c6, which recognizes CD51/61 dimer constituting the OCL vitronectin receptor, was kindly provided by the Bone Biology Center of our university. Images were obtained with an Olympus IX70 microscope. Arrows designate the typical multinucleated osteoclasts with 3 or more nuclei.

CB2 receptor [6] = target: T2, CB2 receptor; experiment: [3H]CP-55,940 radioligand competition binding, CB2; set-up: host or cells: cell membrane preparations; conditions: for SI: selectivity index for CB2: Ki(CB1)/Ki(CB2) ratio
Procedure: (§4) Briefly, the bioassay is carried out using the Perkin Elmer 96-well Top Counter. […] The procedure is as follows.
(§5) In competition binding experiments, the tested compound dilutions are carried out in duplicate in TME buffer (25 mM Tris, 5 mM MgCl2, 1 mM EDTA) containing 0.1% (w/v) fatty acid free bovine serum albumin (BSA), pH 7.4. […] TME buffer and cell membrane preparations expressing CB receptors (5 μg per well) are added to a final volume of 200 μL. […] After the binding suspensions are incubated at 30° C. for 1 hr, the reaction is terminated by rapid filtration through microfiltration plates (Unifilter GF/B filterplate, PerkinElmer), followed by 5 washes with ice cold TME buffer containing 0.1% BSA on a Packard Filtermate Harvester (PerkinElmer). The plates are then dried overnight and 30 μl MicroScint 0 scintillation cocktail is added to each well of the dried filter plates. The bound radioactivity is then counted using a Perkin Elmer 96-well TopCounter. […] This assay is used for determination of the binding affinity parameters (Ki) of ligand-receptor interactions for the CB receptor.

[7] = tested on: MM1.S cells expressing shRNA against human CB2; experiment: Proliferation in CB2 knockdown MM1.S cells; assay type: cell-based; conditions: 48 h, [3H]TdR uptake
Procedure: as §3

[8] = tested on: peripheral blood mononuclear cell (PBMC); experiment: Cytotoxicity on normal human PBMC, trypan blue exclusion; assay type: cell-based; conditions: 3 days
Source text: Peripheral blood was drawn in a heparinized syringe from healthy fasting volunteers who had been without medication for at least 2 weeks. The peripheral blood mononuclear cell (PBMC) fraction was obtained by gradient centrifugation over Ficoll-Hypaque (Amersham), as described by Feng, R. et al. S. KD5170, a novel mercaptoketone-based histone deacetylase inhibitor, exerts antimyeloma effects by DNA damage and mitochondrial signaling, Mol. Cancer Ther. 2008, 7, 1494-1505. […] The compounds in a stock solution (50 mMin DMSO) were diluted with the culture medium to application conditions and further used for the treatment of PBMC for 3 days. The final DMSO concentrations are always 0.02%. After treatment for 72 h, cell viability was determined using trypan blue exclusion assay. These human cell studies conformed to the guidelines of the Institutional Review Board of the University of Pittsburgh, Pa.

RAW 264.7 cells = experiment: RANKL-induced osteoclast differentiation on RAW 264.7 cells (TRAP); assay type: cell-based, mouse; conditions: for inhibition at 0.1 µM / inhibition at 1 µM / inhibition at 10 µM: Mus musculus, RAW264.7, read-out: inhibition rate of osteoclast formation; for inhibition of RANKL-induced osteoclastogenesis, dose dependence: RANKL 15 ng/mL, 5 days; for inhibition at 1 µM / inhibition activity at low dose: 1 μM
Source text: FIG. 5. Anti-osteoclastogenesis activity of exemplary compounds. […] The bar indicates the SD. (B) Photographs of cells in the test of compound 93 (original magnification 100×).

CB1 receptor = target: T3, CB1 receptor (Homo sapiens, UniProt P21554); experiment: [3H]CP-55,940 radioligand competition binding, CB1; conditions: [3H]CP-55,940 displacement; read-out: Ki (CB1)
T3 construct: host or cells: cell membrane preparations
Procedure: as §4, §5

[9] = [3H]CP-55,940 displacement, read-out: Ki (CB2)

T2 sequence (P34972 whole entry): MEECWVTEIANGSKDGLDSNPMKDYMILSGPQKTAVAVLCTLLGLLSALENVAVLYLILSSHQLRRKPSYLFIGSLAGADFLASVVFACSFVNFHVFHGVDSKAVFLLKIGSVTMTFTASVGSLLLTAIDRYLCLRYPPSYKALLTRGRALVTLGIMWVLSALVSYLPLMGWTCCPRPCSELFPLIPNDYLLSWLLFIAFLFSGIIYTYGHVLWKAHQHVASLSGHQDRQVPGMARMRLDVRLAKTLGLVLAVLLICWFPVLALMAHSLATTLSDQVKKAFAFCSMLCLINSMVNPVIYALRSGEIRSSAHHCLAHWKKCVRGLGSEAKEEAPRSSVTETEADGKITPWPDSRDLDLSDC
T3 sequence (P21554 whole entry): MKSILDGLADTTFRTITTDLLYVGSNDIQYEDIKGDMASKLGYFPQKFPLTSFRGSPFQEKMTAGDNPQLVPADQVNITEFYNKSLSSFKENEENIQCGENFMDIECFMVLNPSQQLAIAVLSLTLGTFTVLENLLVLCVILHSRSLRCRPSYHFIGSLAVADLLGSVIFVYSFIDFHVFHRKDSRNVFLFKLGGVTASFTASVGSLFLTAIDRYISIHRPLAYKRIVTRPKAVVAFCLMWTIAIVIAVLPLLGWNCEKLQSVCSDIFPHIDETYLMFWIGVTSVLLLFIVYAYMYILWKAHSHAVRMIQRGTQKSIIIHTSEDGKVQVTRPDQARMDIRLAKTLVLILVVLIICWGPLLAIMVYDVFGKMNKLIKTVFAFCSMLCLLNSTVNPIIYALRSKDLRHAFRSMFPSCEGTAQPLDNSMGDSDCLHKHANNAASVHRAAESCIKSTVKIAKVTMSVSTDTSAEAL
T1 sequence (P34972 whole entry): as the sequence (P34972 whole entry) above

With `COc1ccc(C(=O)c2c(C)n(CCN3CCOCC3)c3cc(I)ccc23)cc1` [AM630] the “inhibition of DNA synthesis in MM cells” value (Human MM cell U266) was “dose dependent inhibition”.
With `CN(C)c1ccc(C(NC(=O)Cc2ccccc2)NC(=O)Cc2ccccc2)cc1` [Compound 1, N,N′-((4-(dimethylamino)phenyl)methylene)bis(2-phenylacetamide)] the “CB2 receptor modulatory activity ([35S]-GTPγS)” value [1] was “inverse CB2 receptor agonist”, the “inhibition of MM cell growth after pretreatment with CB2 agonist” value (U266 cells) was “attenuated” and the “ER stress-induced transcription factor CHOP” value (MM cells) was “transiently upregulated”. For the same compound, the H2A.X phosphorylation (MM cells) was “did not have any effect”, the “MAPK family members in treated MM cells” value (MM cells) was “not up regulated” and the “effect on Cdc25C activation of Cdc2” value (MM cells) was “prevents the tyrosine phosphatase Cdc25C from activating cyclin-B bound Cdc2”. For the same compound, the “number of cells in the G0-G1 phase” value (MM cells; various concentrations) was “does not change”, the “number of cells in the S-phase and G2-M phase” value (MM cells; various concentrations) was “decreased in a dose dependent manner” and the “growth inhibitory effect on parent cells” value [2] was “no growth inhibitory effect”. The IC50 [3] was 0.6 to 1.2 µM, the “mode of CB2 modulation (c-AMP studies)” value (CB2 receptor [4]) was “inverse agonist” and the “RANKL/M-CSF induced osteoclast formation” value ([5]; 1 μM, murine 5 days, human three weeks) was “anti-osteoclast activity; also recorded: completely blocking osteoclast formation”. The toxicity ([5]; concentrations as high as 1 μM) was “non-toxic”, the “SI: selectivity index for CB2” value (CB2 receptor [6]) was over 26 and the Ki (CB2 receptor [6]; [9]) was 0.777 µM. For the same compound, the “anti-MM activity after stable knockout of CB2” value [7] was “largely abrogated” and the IC50 (Human MM cell U266; Homo sapiens, U-266, U266, 48 h, [3H]-thymidine uptake, read-out: inhibition of DNA synthesis in MM cells, IC50) was 1.25 µM.
With `CC(C)c1ccc(C(NC(=O)Cc2ccccc2)NC(=O)Cc2ccccc2)cc1` [Compound 9, N,N′-((4-isopropylphenyl)methylene)bis(2-phenylacetamide)] the “cell viability vs vehicle control” value [8] was “not significantly affected”.
In the case of `CC(C)Oc1ccc(C(NC(=O)Cc2ccccc2)NC(=O)Cc2ccccc2)cc1` [Compound 12, N,N′-((4-isopropoxyphenyl)methylene)bis(2-phenylacetamide)], the “cell viability vs vehicle control” value [8] is reported as “not significantly affected”.
`CCN(CC)c1ccc(C(NC(=O)Cc2ccccc2)NC(=O)Cc2ccccc2)cc1` [Compound 17, N,N′-((4-(diethylamino)phenyl)methylene)bis(2-phenylacetamide)] gave an inhibition at 0.1 µM (RAW 264.7 cells) of 72%, an inhibition at 1 µM (RAW 264.7 cells) of 79% and an inhibition at 10 µM (RAW 264.7 cells) of 84%. The “SI: selectivity index for CB2” value (CB2 receptor [6]) was over 313, the Ki (CB2 receptor [6]; [9]) was 0.064 µM and the cytotoxic effects ([8]; 1 μM) was “did not show any cytotoxic effects”. For the same compound, the “effects on cell viability” value ([8]; 10 μM) was “only slight effects on cell viability” and the “cell viability vs vehicle control” value [8] was “not significantly affected”.
In the case of `CCN(CC)c1ccc(CN(C23CC4CC(CC(C4)C2)C3)S(=O)(=O)c2cccc(C)c2)cc1` [Compound 61, N-((3s,5s,7s)-Adamantan-1-yl)-N-(4-(diethylamino)benzyl)-3-methylbenzenesulfonamide], the “inhibition of RANKL-induced osteoclastogenesis, dose dependence” value (“inhibition … dose dependence” below) (RAW 264.7 cells) is reported as “dose-dependent manner”, the Ki (CB2 receptor [6]) is reported as 0.019 µM and the Ki (CB1 receptor) is reported as 8.22 µM.
In the case of `CCN(CC)c1ccc(CN(c2ccc(Cl)cc2)S(=O)(=O)c2ccc(OC)cc2)cc1` [Compound 84, N-(4-Chlorophenyl)-N-(4-(diethylamino)benzyl)-4-methoxybenzenesulfonamide], the “inhibition activity at low dose” value (RAW 264.7 cells) is reported as “good inhibition activity”, the inhibition at 1 µM (RAW 264.7 cells) is reported as 97% and the “inhibition … dose dependence” value (RAW 264.7 cells) is reported as “dose-dependent manner”. For the same compound, the “SI: selectivity index for CB2” value (CB2 receptor [6]) was >1,428, the Ki (CB2 receptor [6]; [9]) was 0.014 µM and the “effect on cell viability” value ([8]; 5 μM) was “only slight effect on cell viability”. The “cell viability vs vehicle control” value ([8]; 1.25 and 2.5 μM) was “not significantly affected”, the “effects on cell viability” value ([8]; 5 and 10 μM) was “only some effects on cell viability” and the “cell viability vs vehicle control” value [8] was “not significantly affected”. For the same compound, the Ki (CB1 receptor) was over 20 µM.
`CCN(CC)c1ccc(CN(c2ccc(C)cc2)S(=O)(=O)c2ccc(OC)cc2)cc1` [Compound 93, N-(4-(Diethylamino)benzyl)-4-methoxy-N-(p-tolyl)benzenesulfonamide] was tested, and the “inhibition activity at low dose” value (RAW 264.7 cells) was “good inhibition activity”, the inhibition at 0.1 µM (RAW 264.7 cells) was 46% and the inhibition at 1 µM (RAW 264.7 cells) was 97%. The inhibition at 10 µM (RAW 264.7 cells) was 100%, the “inhibition … dose dependence” value (RAW 264.7 cells) was “dose-dependent manner” and the “SI: selectivity index for CB2” value (CB2 receptor [6]) was 2594. For the same compound, the Ki (CB2 receptor [6]; [9]) was 0.0005 µM, the “cell viability vs vehicle control” value ([8]; 1.25 and 2.5 μM) was “not significantly affected” and the “effects on cell viability” value ([8]; 5 and 10 μM) was “only some effects on cell viability”. For the same compound, the “cell viability vs vehicle control” value [8] was “not significantly affected” and the Ki (CB1 receptor) was 1.3 µM.
For `CCN(CC)c1ccc(CN(C(=O)C2CCCCC2)c2ccc(C)cc2)cc1` [Compound 99, N-(4-(Diethylamino)benzyl)-N-(p-tolyl)cyclohexanecarboxamide], the “SI: selectivity index for CB2” value (CB2 receptor [6]) was 0.9, the Ki (CB2 receptor [6]; [9]) was 0.222 µM and the Ki (CB1 receptor) was 0.202 µM.
In the case of `CCCCCCC(C)(C)c1cc(OC)c([C@@H]2C=C(CO)[C@@H]3C[C@H]2C3(C)C)c(OC)c1` [Hu308], the “inhibition of DNA synthesis in MM cells” value (Human MM cell U266) is reported as “no effect”.
